Test results: patent US20170112940A1, “Modified Collagen Hybridizing Peptides And Uses Thereof” (University of Utah Research Foundation, priority 2015, published 2017)

Legend:
gelatin = experiment: Gelatin binding: peptide remaining on crosslinked gelatin film after binding and washing; settings: FIG. 3
Procedure: 10: 10 μM added to crosslinked gelatin gel. […] 7 is CF-GGG-GPO-GPO-GPO-GPO-GPO-GPO-GPO (positive control). […] 7-2azGly is CF-GGG-GPO-GPO-azGlyPO-GPO-azGlyPO-GPO-GPO. Random9 is Scramble sequence of CF-GGG-(GPO)9 The sequence is CF-GGG-PGO-GPG-POP-OGO-GOP-PGO-OPG-GOO-PPG. (negative control).

[1] = Melting temperature (melting curve) of the peptides in 1× PBS; format: physicochemical; settings: FIG. 1
Procedure: The sample concentration tested is 200 uM. 7 is Ac-GPO-GPO-GPO-GPO-GPO-GPO-GPO (This is positive control). 7-1azGly is Ac-GPO-GPO-GPO-azGlyPO-GPO-GPO-GPO. 7-2azGly is Ac-GPO-GPO-azGlyPO-GPO-azGlyPO-GPO-GPO. Melting Temperature of 7 is 54° C. Melting Temperature of 7-1azGly is 65° C. Melting Temperature of 7-2azGly is 77° C.

Denatured Collagen = experiment: Fluorescent staining of SDS-PAGE, denatured collagen lanes; format: binding; settings: SDS-PAGE stained with 35 μM peptide, 5 ug and 10 ug denatured collagen (lanes 3 and 4), FIG. 4
Procedure: (§1) FIGS. 4A and 4B show A) Fluorescent image of SDS-PAGE stained with 35 μM of CFG3(GPO)3AzGPO(GPO)3; B) SDS-PAGE stained with Commassie Blue. Lane 1: MW marker, Lane 2: 50 ug BSA, Lane 3: 5 ug Denatured Collagen (col), Lane 4: 10 ug Denatured Collagen (col). Commasie blue (4B) stains collagen (Lanes 3 and 4) as well as BSA (lane 2).

BSA = BSA (Bos taurus, UniProt P02769); experiment: Fluorescent staining of SDS-PAGE, BSA lane; format: binding; settings: SDS-PAGE stained with 35 μM peptide, 50 ug BSA (lane 2), FIG. 4
Chain of BSA (P02769 25-607): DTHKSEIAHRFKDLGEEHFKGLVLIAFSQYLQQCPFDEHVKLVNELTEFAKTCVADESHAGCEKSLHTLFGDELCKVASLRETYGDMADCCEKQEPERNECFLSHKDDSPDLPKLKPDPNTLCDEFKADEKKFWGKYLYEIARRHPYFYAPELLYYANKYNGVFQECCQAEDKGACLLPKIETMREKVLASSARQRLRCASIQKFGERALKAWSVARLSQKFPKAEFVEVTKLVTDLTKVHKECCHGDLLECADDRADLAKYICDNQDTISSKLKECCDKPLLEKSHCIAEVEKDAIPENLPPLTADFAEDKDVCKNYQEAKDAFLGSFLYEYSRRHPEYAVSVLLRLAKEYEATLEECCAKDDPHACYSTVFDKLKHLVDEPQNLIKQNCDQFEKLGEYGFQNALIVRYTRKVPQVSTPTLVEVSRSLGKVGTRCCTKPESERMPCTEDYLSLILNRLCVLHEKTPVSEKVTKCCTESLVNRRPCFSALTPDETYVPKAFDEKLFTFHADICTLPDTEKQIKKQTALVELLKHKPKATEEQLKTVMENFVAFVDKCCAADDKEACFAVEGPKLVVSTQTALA
Procedure: as §1

[2] = listed as CFG3(GPO)3AzGPO(GPO)3

For “CF-GGG-GPO-GPO-azGlyPO-GPO-azGlyPO-GPO-GPO [7-2azGly]”, which “binding affinity to gelatin (comparison in words)” value (gelatin) is on record?
Its value is “further increases the binding affinity to gelatin”.

For “Ac-GPO-GPO-GPO-azGlyPO-GPO-GPO-GPO [7-1azGly]”, which “triple helical structure indicated by sigmoidal shape of the melting curve” value [1] is on record?
Its value is “has triple helical structure”.

Which “staining of / binding to denatured collagen” value (Denatured Collagen; listed as Aza-CHP) does the source give for “CF-GGG-GPO-GPO-GPO-azGlyPO-GPO-GPO-GPO [7-1azGly]” here?
Its value is “binds to denatured collagen”.

What about the “staining of / binding to denatured collagen” value (Denatured Collagen; [2]) of the same substance?
Its value is “stains only collagen”.

What about the “staining of / binding to denatured BSA” value (BSA; listed as Aza-CHP) of the same substance?
The value was “does not bind to denatured BSA”.

What about the “staining of / binding to denatured BSA” value (BSA; [2]) of the same substance?
Its value is “almost no signal from lane 2”.

What about the “binding affinity to gelatin (comparison in words)” value (gelatin) of the same substance?
The value was “much higher than GPO7”.

For “Ac-GPO-GPO-azGlyPO-GPO-azGlyPO-GPO-GPO [7-2azGly]”, which “triple helical structure indicated by sigmoidal shape of the melting curve” value [1] is on record?
Its value is “has triple helical structure”.
